For series [1] the following is noted: literature value (ref 11); cited from earlier work.
Series [2] can be described thus: Complex formation equilibria (stability constants) with Gd^3+. The class given is physicochemical. As for the experimental part: (§1) To evaluate the affinity of H4noneunpaX towards metal ions of medicinal importance—e.g. Sc^3+, In^3+, Lu^3+, Dy^3+, Gd^3+, Sm^3+, La^3+— the complex formation equilibria were studied using both combined potentiometric-spectrophotometric titrations, and in all cases, acidic in-batch UV-vis spectrophotometric titrations below pH 2. […]
(§2) All potentiometric titrations were carried out with a Metrohm Titrando 809 and a Metrohm Dosino 800 with a Ross combined electrode. Direct titrations were recorded using a Varian Cary 60 UV-vis spectrophotometer (200-350 nm spectral range) equipped with an optic dip probe (0.2 cm path length), while acidic in-batch experiments were measured with a standardised glass cuvette (1 cm path length). A temperature-controlled (298 K) 20 mL glass cell with an inlet-outlet adapter for nitrogen gas purging (purified via a 10% NaOH solution to exclude CO2 prior to and during each titration) was used as a titration cell. The electrode was calibrated daily in hydrogen ion concentration by direct titration of HCl with freshly prepared NaOH solution, and the results were analysed with the Gran procedure^55 to determine the standard potential (E°) and the ionic product of water (pKw), at 298 K, with 0.16 M NaCl as a supporting electrolyte. […]
(§3) The complex formation equilibria of H4noneunpaX with Sc^3+, In^3+, Lu^3+, Dy^3+, Gd^3+, Sm^3+, and La^3+ were evaluated using both combined potentiometric-spectrophotometric titrations, and acidic in-batch UV-vis spectrophotometric titrations below pH 2. […] Measurements were recorded at T=298 K, I=1.0 cm, the Hammett acidity function (H0) was used determination of the pH in highly acidic solutions rather than electrode potentials. Metal solutions were prepared from atomic absorption spectroscopy (AAS) standards, which were previously evaluated using Gran's method of titrating equimolar solutions of a given metal ion and Na2H2EDTA against NaOH to determine the acid concentration. […]

Series [3] is described as follows: Complex formation equilibria (stability constants) with La^3+. The class given is physicochemical. The method, then:
as §1, §2, §3

The nature of series [4]: Complex formation equilibria (stability constants) with In^3+. The class given is physicochemical. As for the experimental part: as §1
(§4) All potentiometric titrations were carried out with a Metrohm Titrando 809 and a Metrohm Dosino 800 with a Ross combined electrode. Direct titrations were recorded using a Varian Cary 60 UV-vis spectrophotometer (200-350 nm spectral range) equipped with an optic dip probe (0.2 cm path length), while acidic in-batch experiments were measured with a standardised glass cuvette (1 cm path length). A temperature-controlled (298 K) 20 mL glass cell with an inlet-outlet adapter for nitrogen gas purging (purified via a 10% NaOH solution to exclude CO2 prior to and during each titration) was used as a titration cell. The electrode was calibrated daily in hydrogen ion concentration by direct titration of HCl with freshly prepared NaOH solution, and the results were analysed with the Gran procedure^55 to determine the standard potential (E°) and the ionic product of water (pKw), at 298 K, with 0.16 M NaCl as a supporting electrolyte. Solutions under study were titrated with carbonate-free NaOH solution (˜0.16 M) which was standardized against freshly recrystallized potassium hydrogen phthalate.
The complex formation equilibria of H4noneunpaX with Sc^3+, In^3+, Lu^3+, Dy^3+, Gd^3+, Sm^3+, and La^3+ were evaluated using both combined potentiometric-spectrophotometric titrations, and acidic in-batch UV-vis spectrophotometric titrations below pH 2. For combined potentiometric-spectrophotometric titrations (spectral range: 200-350 nm), solutions containing a 1:1 molar ratio of metal-to-ligand ([M^3+]≈[H4noneunpaX]=8.40×10^−4 M) were titrated against NaOH solution at T=298 K, I=0.2 cm. Acidic in-batch UV-vis spectrophotometric measurements (spectral range: 200-350 nm) were carried out using sets of solutions containing a 1:1 molar ratio of metal-to-ligand ([M^3+]≈[H4noneunpaX]≈1×10^−4 M) with differing amounts of HCl (0.1 M and 3.0 M), to give samples ranging from pH 0-2. Measurements were recorded at T=298 K, I=1.0 cm, the Hammett acidity function (H0) was used determination of the pH in highly acidic solutions rather than electrode potentials. Metal solutions were prepared from atomic absorption spectroscopy (AAS) standards, which were previously evaluated using Gran's method of titrating equimolar solutions of a given metal ion and Na2H2EDTA against NaOH to determine the acid concentration.
(§5) All the potentiometric measurements were processed using the Hyperquad2013^25 software, while spectroscopic measurements were analysed using HypSpec2014.^24 Proton dissociation constants corresponding to hydrolysis of the Sc^3+, In^3+, Lu^3+, Dy^3+ Gd^3+, Sm^3+, and La^3+ aqueous ions used in the calculations were taken from Baes and Mesmer. Speciation diagrams were generated with the calculated protonation constants and stability constants using Hyss software.^56
(§6) Each species generated in the investigated systems can be defined in accordance with the general equilibrium equation pM+qH+rL=MpHqLr (charges omitted). Wherein, a complex containing a metal ion, M, proton, H and ligand, L, has the general formula MpHqLr. […]

The nature of series [5]: Protonation constants by combined potentiometric-spectrophotometric and acidic in-batch UV-vis titrations. To be noted: 25° C. The class given is physicochemical.
Description: Prior to investigation of the thermodynamic stability of different metal complexes, the protonation constants of the chelating ligand must be determined independently, due to the competition between a given metal ion with a proton for the same coordinating group in the metal complex reaction. Combined potentiometric and UV-vis spectrophotometric titrations were used to evaluate the protonation constants of H4noneunpaX between pH˜2-11.5, while acidic in-batch UV-vis spectrophotometric titrations were used to determine the protonation constants for the most acidic protons, which were below the threshold of the pH electrode (pH<2). All eight protonation constants for H4noneunpaX were determined through refinement of the experimental data using HyperSpec^24 and Hyperquad^25, Table 3.
as §4
The protonation equilibria of H4noneunpaX were evaluated through combined potentiometric-spectrophotometric titrations of solutions containing the ligand ([L]=9.57×10^−4 M) in 0.16 M NaCl (T=298 K, I=0.2 cm). Electromotive force (EMF) values and UV-vis spectra were recorded after each addition of NaOH, and the apparatuses synchronized to have consistent time-intervals (30 s) between each addition/equilibration and data acquisition. Further acidic in-batch UV-vis spectrophotometry studies were performed to obtain the protonation constants for the most acidic ionisable protons of H4noneunpaX, which were below the threshold of the pH electrode (pH<2). Separate solutions of the ligand were prepared at constant molarity ([L]=1×10^−4 M) with differing amounts of HCl (0.1 M and 3.0 M), while maintaining a constant ionic strength (0.16 M NaCl) wherever possible. In each case, the solution stoichiometry was used to calculate the equilibrium concentration of H^+ ions, following the Hammett acidity function (H0) for determination of acidity in high concentration acid solutions. All eight protonation constants for H4noneunpaX were determined through refinement of the experimental data using HypSpec2014^24 and Hyperquad2013^25 software.
as §5, §6

Series [6] in a line: Complex formation equilibria (stability constants) with Dy^3+. The class given is physicochemical. As for the experimental part: as §1, §2, §3
Series [7] can be described thus: Complex formation equilibria (stability constants) with Lu^3+. The class given is physicochemical. As for the experimental part: as §1, §2, §3
A short description of series [8]: Human serum stability challenge. The class given is in vitro ADME. The settings on record: complexes with [^111In]In^3+, [^155Tb]Tb^3+, [^177Lu]Lu^3+, [^225Ac]Ac^3+; 37° C., 5-7 days. The method, then:
All experiments were performed at 37° C. and monitored via radio-iTLC (n=3).
Human serum stability studies were carried out by addition of each radiolabelled complex or bioconjugate (100 μL) to vials containing human serum albumin (100 μL) and incubating the resulting solutions at 37° C. over 5-7 days. The radiochemical purity (RCP) was determined by iTLC using SA-paper plates and EDTA (50 mM, pH 5.5 or 7.0) as eluent, whereby transchelated radioactivity migrates with the solvent front (Rf=1.0) while intact metal complexes remain at the baseline (Rf=0). All studies were performed in triplicate, and the average % RCP used for assessment of each compound.

A short description of series [9]: Complex formation equilibria (stability constants) with Sc^3+. The class given is physicochemical. The method, then: as §1, §2, §3
A short description of series [10]: Complex formation equilibria (stability constants) with Sm^3+. The class given is physicochemical. As for the experimental part:
as §1, §2, §3

The conditions of series [11]: cited from earlier work.
For series [12] the following is noted: literature value (ref 40); cited from earlier work.
[13] abbreviates: −log[Mfree] when [L] = 10 μM, [M] = 1 μM at pH 7.4.

For `O=C(O)CN1CCN(CC(=O)O)CCN(CC(=O)O)CCN(CC(=O)O)CC1` [DOTA], in [1], the pLu was 17.1.
As to `O=C(O)CN(CCN(CC(=O)O)CC(=O)O)CCN(CC(=O)O)CC(=O)O` [DTPA], the pLu in series [1] is recorded as 19.1.
For `O=C(O)CN(CCOCCN(Cc1cccc(C(=O)O)n1)Cc1cccc(C(=O)O)n1)CC(=O)O` [H4noneunpaX], the “log KMHL” value is 2.80(1) in series [2] (25° C., I = […] NaCl); 3.22(2) in series [3] (25° C., I = […] NaCl); 6.17(3) in series [4] (25° C., I = […] NaCl); 2.29(2) in series [6] (25° C., I = […] NaCl); 2.28(3) in series [7] (25° C., I = […] NaCl); 3.07(1) in series [9] (25° C., I = […] NaCl). Further, in series [10] (25° C., I = […] NaCl), the “log KMHL” value is given as 2.77(1). The “log KML” value was 20.87(4) in [2] (25° C., I = […] NaCl); 18.45(4) in [3] (25° C., I = […] NaCl); 27.64(2) in series [4] (25° C., I = […] NaCl); 21.99(5) in [6] (25° C., I = […] NaCl); 21.93(3) in series [7] (25° C., I = […] NaCl); 23.57(2) in [9] (25° C., I = […] NaCl). In series [10] (25° C., I = […] NaCl), the “log KML” value was 21.04(2). Moreover, the pM in series [2] (setting [13]) is 20.2; in series [3] (setting [13]) it was 17.8; in series [4] (setting [13]) it was 26.5; in series [6] (setting [13]) it was 21.3; in series [7] (setting [13]) it was 21.3; in series [9] (setting [13]) it was 22.9. For the same molecule, the pM in series [10] (setting [13]) was 20.4. Also, the “log KM(OH)2L” value in series [4] (25° C., I = […] NaCl) was 9.06(4). For the same molecule, the “log KM(OH)L” value in series [4] (25° C., I = […] NaCl) is listed as 8.58(4). Moreover, in [5] (I = […] NaCl), the “Σlog KHqL” value is recorded as 27.35 (6). The “log K (log K3)” value in [5] (H2L + H^+ ↔ H3L, I = […] NaCl) was 3.79. Besides, the “log β” value in series [5] (H2L + H^+ ↔ H3L, I = […] NaCl) is reported as 19.71 (1); in series [5] (H3L + H^+ ↔ H4L, I = […] NaCl), 22.54 (2); in series [5] (H4L + H^+ ↔ H5L, I = […] NaCl), 24.92 (3); in series [5] (H5L + H^+ ↔ H6L, I = […] NaCl), 27.06 (4); in series [5] (H6L + H^+ ↔ H7L, I = […] NaCl), 28.07 (4); in [5] (H7L + H^+ ↔ H8L), 27.35 (6). In addition, the “log β” value is recorded as 15.92 (1) in [5] (HL + H^+ ↔ H2L, I = […] NaCl) and 8.84 (1) in series [5] (L + H^+ ↔ HL, I = […] NaCl). In addition, the “log K (log K4)” value in series [5] (H3L + H^+ ↔ H4L, I = […] NaCl) is given as 2.83. Besides, the “log K (log K5)” value in [5] (H4L + H^+ ↔ H5L, I = […] NaCl) came to 2.38. Also, in series [5] (H5L + H^+ ↔ H6L, I = […] NaCl), the “log K (log K6)” value was determined as 2.14. For the same molecule, the “log K” value in series [5] (H6L + H^+ ↔ H7L, I = […] NaCl) is given as 1.01. Moreover, the “log K (log K2)” value in series [5] (HL + H^+ ↔ H2L, I = […] NaCl) was 7.08. In addition, the “log K (log K1)” value in series [5] (L + H^+ ↔ HL, I = […] NaCl) is recorded as 8.84. Further, in series [8], the “release of bound radiometal in human serum” value was “no release of bound radiometal”.
Regarding `O=C(O)CN(CCOCCN(CC(=O)O)Cc1cccc(C(=O)O)n1)Cc1cccc(C(=O)O)n1` [H4noneunpa], the “log K2” value in series [11] (literature value (ref 13), terminal amine) is 7.63.
Turning to `O=C(O)CN(CCO)CC(=O)O` [HEIDA, N-(2-hydroxyethyl)iminodiacetic acid], the “log K1” value in series [11] (literature value (ref 26), iminodiacetate amine) is 8.68.
With [^177Lu][Lu(DOTATATE)], in [12], the “accumulation in the adrenal glands” value is 8.95 % ID/g, the “accumulation in the lungs” value is recorded as 17.4 % ID/g, the “accumulation in the pancreas” value was 10.9 % ID/g and the “uptake in the kidneys” value is given as 6.31 % ID/g.
